In ChEMBL document CHEMBL3525916, “Investigation of figopitant and its metabolites in rat tissue by combining whole-body autoradiography with liquid extraction surface analysis mass spectrometry” (Drug Metab Dispos, 2012):

Assays:
Parameters in all cases: dose 5 mg/kg, route intravenous
Settings in all cases: in vivo
Rattus norvegicus [1] = experiment: Biodistribution in albino Wistar Hannover rat bone marrow at 5 mg/kg, iv after 24 hrs by autoradiography analysis; type: ADME, organism-based
Liver [2] = experiment: Biodistribution in albino Wistar Hannover rat liver at 5 mg/kg, iv after 5 mins by autoradiography analysis; type: ADME, organism-based
Pancreas [3] = experiment: Biodistribution in albino Wistar Hannover rat pancreas at 5 mg/kg, iv after 4 hrs by autoradiography analysis; type: ADME, organism-based
Zone of skin = experiment: Biodistribution in albino Wistar Hannover rat skin at 5 mg/kg, iv after 24 hrs by autoradiography analysis; type: ADME, organism-based
Rattus norvegicus [4] = experiment: Biodistribution in albino Wistar Hannover rat adipose tissue at 5 mg/kg, iv after 24 hrs by autoradiography analysis; type: ADME, organism-based
Brain [5] = experiment: Biodistribution in albino Wistar Hannover rat brain at 5 mg/kg, iv after 4 hrs by autoradiography analysis; type: ADME, organism-based
Rattus norvegicus [6] = experiment: Biodistribution in albino Wistar Hannover rat bone marrow at 5 mg/kg, iv after 4 hrs by autoradiography analysis; type: ADME, organism-based
Rattus norvegicus [7] = experiment: Biodistribution in albino Wistar Hannover rat muscle cranial at 5 mg/kg, iv after 24 hrs by autoradiography analysis; type: ADME, organism-based, Muscle tissue
Liver [8] = experiment: Biodistribution in albino Wistar Hannover rat liver at 5 mg/kg, iv after 24 hrs by autoradiography analysis; type: ADME, organism-based
Pituitary gland [9] = experiment: Biodistribution in albino Wistar Hannover rat pituitary at 5 mg/kg, iv after 5 mins by autoradiography analysis; type: ADME, organism-based
Rattus norvegicus [10] = experiment: Biodistribution in albino Wistar Hannover rat renal cortex at 5 mg/kg, iv after 5 mins by autoradiography analysis; type: ADME, organism-based
Lung [11] = experiment: Biodistribution in albino Wistar Hannover rat lung at 5 mg/kg, iv after 4 hrs by autoradiography analysis; type: ADME, organism-based
Rattus norvegicus [12] = experiment: Biodistribution in albino Wistar Hannover rat testis at 5 mg/kg, iv after 5 mins by autoradiography analysis; type: ADME, organism-based
Rattus norvegicus [13] = experiment: Biodistribution in albino Wistar Hannover rat renal cortex at 5 mg/kg, iv after 24 hrs by autoradiography analysis; type: ADME, organism-based
Pituitary gland [14] = experiment: Biodistribution in albino Wistar Hannover rat pituitary at 5 mg/kg, iv after 24 hrs by autoradiography analysis; type: ADME, organism-based
Blood [15] = experiment: Biodistribution in albino Wistar Hannover rat whole blood at 5 mg/kg, iv after 5 mins by liquid scintillation counting; type: ADME, organism-based
Brain [16] = experiment: Biodistribution in albino Wistar Hannover rat brain at 5 mg/kg, iv after 5 mins by autoradiography analysis; type: ADME, organism-based
[17] = Half life in albino Wistar Hannover rat muscle caudal at 5 mg/kg, iv by autoradiography analysis; type: ADME, organism-based, Muscle tissue
Rattus norvegicus [18] = experiment: Biodistribution in albino Wistar Hannover rat epididymis at 5 mg/kg, iv after 5 mins by autoradiography analysis; type: ADME, organism-based
Rattus norvegicus [19] = experiment: Biodistribution in albino Wistar Hannover rat tongue at 5 mg/kg, iv after 5 mins by autoradiography analysis; type: ADME, organism-based
Lung [20] = experiment: Biodistribution in albino Wistar Hannover rat lung at 5 mg/kg, iv after 24 hrs by autoradiography analysis; type: ADME, organism-based
Lung [21] = experiment: Biodistribution in albino Wistar Hannover rat lung at 5 mg/kg, iv after 5 mins by autoradiography analysis; type: ADME, organism-based
Pituitary gland [22] = experiment: Drug uptake in albino Wistar Hannover rat pituitary at 5 mg/kg, iv by LESA-MS analysis; type: ADME, organism-based
Rattus norvegicus [23] = experiment: Biodistribution in albino Wistar Hannover rat muscle caudal at 5 mg/kg, iv after 24 hrs by autoradiography analysis; type: ADME, organism-based, Muscle tissue
Rattus norvegicus [24] = experiment: Biodistribution in albino Wistar Hannover rat adrenal cortex at 5 mg/kg, iv after 4 hrs by autoradiography analysis; type: ADME, organism-based
Rattus norvegicus [25] = experiment: Biodistribution in albino Wistar Hannover rat myocardium at 5 mg/kg, iv after 4 hrs by autoradiography analysis; type: ADME, organism-based
Pancreas [26] = experiment: Biodistribution in albino Wistar Hannover rat pancreas at 5 mg/kg, iv after 24 hrs by autoradiography analysis; type: ADME, organism-based
Spleen [27] = experiment: Biodistribution in albino Wistar Hannover rat spleen at 5 mg/kg, iv after 24 hrs by autoradiography analysis; type: ADME, organism-based
Lung [28] = experiment: Drug uptake in albino Wistar Hannover rat lung at 5 mg/kg, iv by LESA-MS analysis; type: ADME, organism-based
Rattus norvegicus [29] = experiment: Biodistribution in albino Wistar Hannover rat muscle cranial at 5 mg/kg, iv after 4 hrs by autoradiography analysis; type: ADME, organism-based, Muscle tissue
Spleen [30] = experiment: Drug uptake in albino Wistar Hannover rat spleen at 5 mg/kg, iv by LESA-MS analysis; type: ADME, organism-based
Muscle tissue = experiment: Drug uptake in albino Wistar Hannover rat muscle at 5 mg/kg, iv by LESA-MS analysis; type: ADME, organism-based
Thymus = experiment: Biodistribution in albino Wistar Hannover rat thymus at 5 mg/kg, iv after 5 mins by autoradiography analysis; type: ADME, organism-based
Rattus norvegicus [31] = experiment: Biodistribution in albino Wistar Hannover rat muscle cranial at 5 mg/kg, iv after 5 mins by autoradiography analysis; type: ADME, organism-based, Muscle tissue
[32] = Half life in albino Wistar Hannover rat testis at 5 mg/kg, iv by autoradiography analysis; type: ADME, organism-based
Blood [33] = experiment: Biodistribution in albino Wistar Hannover rat whole blood at 5 mg/kg, iv after 24 hrs by liquid scintillation counting; type: ADME, organism-based
Spleen [34] = experiment: Biodistribution in albino Wistar Hannover rat spleen at 5 mg/kg, iv after 5 mins by autoradiography analysis; type: ADME, organism-based
Rattus norvegicus [35] = experiment: Biodistribution in albino Wistar Hannover rat adrenal cortex at 5 mg/kg, iv after 5 mins by autoradiography analysis; type: ADME, organism-based
Rattus norvegicus [36] = experiment: Biodistribution in albino Wistar Hannover rat tongue at 5 mg/kg, iv after 4 hrs by autoradiography analysis; type: ADME, organism-based
[37] = Drug uptake in albino Wistar Hannover rat brown fat at 5 mg/kg, iv by LESA-MS analysis; type: ADME, organism-based, Brown adipose tissue
[38] = Half life in albino Wistar Hannover rat adipose tissue at 5 mg/kg, iv by autoradiography analysis; type: ADME, organism-based
Harderian gland = experiment: Biodistribution in albino Wistar Hannover rat harderian gland at 5 mg/kg, iv after 4 hrs by autoradiography analysis; type: ADME, organism-based
[39] = Half life in albino Wistar Hannover rat salivary gland at 5 mg/kg, iv by autoradiography analysis; type: ADME, organism-based

## CN(CCc1cc(C(F)(F)F)cc(C(F)(F)F)c1)C(=O)[C@H](c1ccccc1)N1CCN(CC2CC2)CC1.Cl.O
Rattus norvegicus [1]
  Drug uptake: 1156 ngequiv/g
Liver [2]
  Drug uptake: 5984 ngequiv/g
Pancreas [3]
  Drug uptake: 12820 ngequiv/g
Zone of skin
  Drug uptake: 606 ngequiv/g
Rattus norvegicus [4]
  Drug uptake: 113 ngequiv/g
Brain [5]
  Drug uptake: 122 ngequiv/g
Rattus norvegicus [6]
  Drug uptake: 3910 ngequiv/g
Rattus norvegicus [7]
  Drug uptake: 671 ngequiv/g
Liver [8]
  Drug uptake: 4793 ngequiv/g
Pituitary gland [9]
  Drug uptake: 8110 ngequiv/g
Rattus norvegicus [10]
  Drug uptake: 19088 ngequiv/g
Lung [11]
  Drug uptake: 10036 ngequiv/g
Rattus norvegicus [12]
  Drug uptake: 938 ngequiv/g
Rattus norvegicus [13]
  Drug uptake: 2627 ngequiv/g
Pituitary gland [14]
  Drug uptake: 2350 ngequiv/g
Blood [15]
  Drug uptake: 830 ngequiv/g
Brain [16]
  Drug uptake: 1912 ngequiv/g
[17]
  t1/2: 19.7 h
Rattus norvegicus [18]
  Drug uptake: 1728 ngequiv/g
Rattus norvegicus [19]
  Drug uptake: 12885 ngequiv/g
Lung [20]
  Drug uptake: 1708 ngequiv/g
Lung [21]
  Drug uptake: 24769 ngequiv/g
Pituitary gland [22]
  Drug uptake: 47.8%
Rattus norvegicus [23]
  Drug uptake: 670 ngequiv/g
Rattus norvegicus [24]
  Drug uptake: 11078 ngequiv/g
Rattus norvegicus [25]
  Drug uptake: 4240 ngequiv/g
Pancreas [26]
  Drug uptake: 4138 ngequiv/g
Spleen [27]
  Drug uptake: 3306 ngequiv/g
Lung [28]
  Drug uptake: 38.9%
Rattus norvegicus [29]
  Drug uptake: 2972 ngequiv/g
Spleen [30]
  Drug uptake: 30.9%
Muscle tissue
  Drug uptake: 36.5%
Thymus
  Drug uptake: 3243 ngequiv/g
Rattus norvegicus [31]
  Drug uptake: 8437 ngequiv/g
[32]
  t1/2: 95.6 h
Blood [33]
  Drug uptake: 122 ngequiv/g
Spleen [34]
  Drug uptake: 7308 ngequiv/g
Rattus norvegicus [35]
  Drug uptake: 21006 ngequiv/g
Rattus norvegicus [36]
  Drug uptake: 3786 ngequiv/g
[37]
  Drug uptake: 47.1%
[38]
  t1/2: 27.1 h
Harderian gland
  Drug uptake: 13941 ngequiv/g
[39]
  t1/2: 20.3 h
